Measured values published in paper PMC9304929, “The Cholesterol-Binding Sequence in Monomeric C-Reactive Protein Binds to the SARS-CoV-2 Spike Receptor-Binding Domain and Blocks Interaction With Angiotensin-Converting Enzyme 2” (Frontiers in Immunology, 2022).

How the values were obtained:
[1] = test system: binding of mCRP to the spike RBD; assay: Peptide competition assay (ELISA) of mCRP binding to spike RBD; set-up: species or system SARS-CoV-2; details: spike RBD-coated wells (2 μg/mL), mCRP at half-saturation concentration with synthetic peptide, mAb 3H12, n = 3
[2] = test system: SARS-CoV-2 spike RBD; assay: Surface plasmon resonance (SPR) binding assay, spike RBD on CM5 chip
Description: (§1) Surface plasmon resonance (SPR) binding assays were performed using Biacore 8K instrument (Cytiva Life Sciences, Marlborough, MA, USA) in HEPES buffer containing 50 mM HEPES (pH 7.4), 150 mM NaCl, and 0.05% Tween-20 at 25°C. Spike-RBD was diluted to a concentration of 20 μg/mL with 10 mM sodium acetate (pH 5.0) and immobilized on a CM5 sensor chip (Cytiva Life Sciences, Marlborough, MA, USA). The mCRP samples were passed over the sensor chip at a flow rate of 30 μL/min with a concentration gradient from 3.125 nM to 100 nM. The association time was 180 s. A dissociation process was performed for 200 s at a flow rate of 30 μL/min. The dissociation constant (Kd) values were calculated by fitting result curves (subtracted from the control flow value) to a 1:1 Langmuir binding model with Biacore 8K evaluation software.

[3] = cited from earlier work
[4] = test system: binding of the spike RBD to ACE2; assay: SPR competition of spike RBD binding to ACE2; set-up: species or system human; details: fixed spike RBD concentration, different concentrations of mCRP
Description: as §1
Having confirmed that mCRP can bind to the spike RBD, we further questioned whether mCRP can compete for the binding of the spike RBD to ACE2. […] First, in the spike RBD binding assay with ACE2, the spike RBD concentration was fixed and different concentrations of mCRP were added to test whether mCRP could inhibit the binding of the spike RBD to ACE2.

[5] = target: SARS-CoV-2 spike RBD; assay: Spike RBD-mCRP binding ELISA; details: for Kd: ELISA, spike RBD-immobilized microtiter wells, detection with mCRP-specific mAb 3H12, n = 3, mean ± S.E.M.
Description: The interactions of the spike-RBD with mCRP or CRP were also examined by enzyme-linked immunosorbent assay (ELISA) using mCRP/CRP-specific mAbs. Briefly, 100 μL of spike-RBD (1μg/mL) in Tris-buffered saline (TBS; 10 mM Tris, 140 mM NaCl, pH 7.4) was added per well to coat in 96-well microplates overnight at 4°C. The wells were then washed three times with TBS containing 0.02% Tween-20 for 5 min and blocked with 1% bovine serum albumin (BSA) in TBS for 1 h at 37°C. Next, mCRP was added and the plates were incubated for 1 h at 37°C. The color was developed by adding tetramethyl benzidine (TMB) to the wells and the color development was stopped with 1 M H2SO4.

[6] = test system: spike RBD binding to cell surface ACE2 (A549 ACE2+/+ cells); assay: Inhibition assay of spike-ACE2 interaction in cells (flow cytometry); assay type: cell-based, human; details: spike RBD 140 nM with ACE2+/+ cells, compound 4°C 30 min, n = 3
[7] = test system: immortalized bone marrow-derived macrophages (iBMDM); assay: Cytokine release from macrophages stimulated with CBS; assay type: cell-based; details: iBMDM stimulated with different concentrations of CBS, LPS positive control, n = 3
Description: To compare the inhibitory ability of the CBS peptide, different concentrations of the CBS peptide were added to the cell medium and incubated at 4°C for 30 min. After washing, the mixture was incubated for another 30 min with anti-Flag antibody, followed by incubation with a secondary antibody conjugated to Alexa Fluor 488. The inhibitory activity of the CBS peptide and positive control (lomefloxacin) was compared using flow cytometry with Alexa Fluor 488-conjugated spike RBD and phycoerythrin (PE)-conjugated ACE2. […] At the same time, we stimulated macrophages with the CBS peptide and detected the release of pro-inflammatory cytokines TNF-α and IL-6 to verify whether the CBS peptide itself is immunogenic.

[8] = test system: SARS-CoV-2 pseudovirus; details: 50 μM, preliminary results, data not shown
[9] = test system: binding of the spike RBD to mCRP; set-up: species or system SARS-CoV-2

## amino acids 35−42 (VCLHFYTE)
[1]
  inhibition of the binding of mCRP to the spike RBD (peptide competition assay): still inhibited

## mCRP
[2]; analyte 3.125-100 nM in fluid phase, spike RBD on CM5 chip, HEPES pH 7.4, 25°C
  binding to the spike RBD (SPR): high affinity
[3]
  half-life of blood-borne mCRP: rather short
[4]
  inhibition of the binding of the spike RBD to ACE2 (SPR): significantly inhibited

## r-mCRP
[5]
  Kd: 24.4 ± 6.48 nM

## u-mCRP
[5]
  Kd: 44.9 ± 6.27 nM

## amino acids 41−47 (TELSSTR; UniProt P02741 59-65, looked up, fragment)
[1]
  inhibition of the binding of mCRP to the spike RBD (peptide competition assay): lost the ability to inhibit

## amino acids 39−47 (FYTELSSTR)
[1]
  inhibition of the binding of mCRP to the spike RBD (peptide competition assay): lost the ability to inhibit

## CCn1cc(C(=O)O)c(=O)c2cc(F)c(N3CCNC(C)C3)c(F)c21 (stereo not shown) [lomefloxacin, Lomefloxacin, reference compound]
[6]
  inhibition of the binding of the spike RBD to the cell surface ACE2: almost completely inhibited

## ACE2
[2]; check of biological activity of the spike RBD protein
  binding of spike RBD to ACE2 (SPR): high affinity

## pCRP
[5]; spike RBD-immobilized wells, detection with pCRP-specific mAb 8D8, n = 3
  binding to the spike RBD (ELISA): did not bind

## CBS (VCLHFYTELSSTR)
[1]
  inhibition of the binding of mCRP to the spike RBD (peptide competition assay): competitively inhibited
[7]
  release of pro-inflammatory cytokines TNF-α and IL-6: did not induce the release of cytokines
[6]
  inhibition of the binding of the spike RBD to the cell surface ACE2: inhibit the binding of the spike RBD to the cell surface ACE2 in a concentration-dependent manner
[8]
  inhibition of the invasion of SARS-CoV-2 pseudovirus into Caco-2 cells: partially inhibit
[9]
  inhibition of the binding of the spike RBD to mCRP (SPR): almost completely inhibited
